From patent US20110053916A1 (Vertex Pharmaceuticals Incorporated, priority 2009, published 2011) come the findings set out here.

A value given as a limit tells only on which side of the number the result lay.

T1 sequence (P9WI81 whole entry): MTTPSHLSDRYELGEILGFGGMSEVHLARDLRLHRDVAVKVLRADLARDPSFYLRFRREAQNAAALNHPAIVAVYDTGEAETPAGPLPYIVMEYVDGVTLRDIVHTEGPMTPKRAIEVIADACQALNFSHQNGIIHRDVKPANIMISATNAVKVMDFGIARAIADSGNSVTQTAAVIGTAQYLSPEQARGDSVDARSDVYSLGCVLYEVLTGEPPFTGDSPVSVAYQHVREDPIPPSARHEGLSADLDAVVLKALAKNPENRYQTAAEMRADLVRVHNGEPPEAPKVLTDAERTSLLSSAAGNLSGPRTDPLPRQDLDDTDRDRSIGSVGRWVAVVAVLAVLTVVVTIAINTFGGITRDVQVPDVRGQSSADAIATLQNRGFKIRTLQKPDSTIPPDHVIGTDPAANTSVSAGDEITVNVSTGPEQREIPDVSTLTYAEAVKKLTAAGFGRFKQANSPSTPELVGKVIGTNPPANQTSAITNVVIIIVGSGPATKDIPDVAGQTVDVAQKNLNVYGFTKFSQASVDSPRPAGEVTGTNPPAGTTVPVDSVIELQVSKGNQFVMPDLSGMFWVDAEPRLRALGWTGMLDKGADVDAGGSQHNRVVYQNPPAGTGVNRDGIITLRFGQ

The first assay addresses T1, PknB (Mycobacterium tuberculosis, UniProt P9WI81).
T1 construct: made in house
Briefly: biochemical. On the set-up: species or system M. tuberculosis. The settings on record: 3 nM PknB, 6 uM GarA, 3 μM ATP, 30 min; competitive tight-binding fit; several symbols in a cell = repeat determinations.
Regarding `CC(O)c1cnc(-c2ccc(S(=O)(=O)NC(C)(C)C)s2)nc1Nc1cc(C2CC2)[nH]n1` (centres unmarked) [Compound 208, 5-[4-[(5-cyclopropyl-1H-pyrazol-3-yl)amino]-5-(1-hydroxyethyl)pyrimidin-2-yl]-N-tert-butyl-thiophene-2-sulfonamide], the “Ki Values” is “B**, B**, B*, B”. On to `CC(=O)c1ccc(-c2ncc(Br)c(Nc3cc(C4CC4)[nH]n3)n2)s1` [Compound 165, 1-[5-[5-bromo-4-[(5-cyclopropyl-1H-pyrazol-3-yl)amino]-pyrimidin-2-yl]-2-thienyl]ethanone], for which the “Ki Values” is recorded as “A**, A*”.

As to `C#Cc1cnc(-c2ccc([C@@H](O)CCC)s2)nc1Nc1cc(C2CC2)n[nH]1` (stereo in doubt) [Compound 211, 1-[5-[4-[(5-cyclopropyl-2H-pyrazol-3-yl)amino]-5-ethynyl-pyrimidin-2-yl]-2-thienyl]butan-1-ol], the “Ki Values” is reported as “A**, A*, A*”.

As to `C#Cc1cnc(N2CCCCC2)nc1Nc1cc(C2CC2)n[nH]1` [Compound 172, N-(5-Cyclopropyl-1H-pyrazol-3-yl)-5-ethynyl-2-(piperidin-1-yl)pyrimidin-4-amine], the “Ki Values” is given as “A, B**, B**”. For `CS(=O)(=O)c1ccc(-c2ncc(F)c(Nc3cc(C4CC4)[nH]n3)n2)cc1` [Compound 16, N-(5-cyclopropyl-1H-pyrazol-3-yl)-5-fluoro-2-(4-methylsulfonylphenyl)-pyrimidin-4-amine], the “Ki Values” is reported as “A*, A”.

Staying with this assay, now noted: 3 nM PknB, 6 uM GarA, 3 μM ATP, 30 min; competitive tight-binding fit; several symbols in a cell = repeat determinations; read-out: Ki Values.
With `CC1CC1c1cc(Nc2nc(-c3ccc(S(=O)(=O)NC(C)(C)C)s3)ncc2Cl)n[nH]1` (centres unmarked) [Compound 321, 5-[5-chloro-4-[[5-(2-methylcyclopropyl)-1H-pyrazol-3-yl]amino]-pyrimidin-2-yl]-N-tert-butyl-thiophene-2-sulfonamide], the Ki – broadly, a dissociation constant, usually derived from enzyme kinetics or from competition with a known ligand – is 100 to 500 nM. Consider `NS(=O)(=O)c1ccc(-c2ncc(Br)c(Nc3cc(C4CC4)[nH]n3)n2)s1` [Compound 186, 5-[5-bromo-4-[(5-cyclopropyl-1H-pyrazol-3-yl)amino]-pyrimidin-2-yl]thiophene-2-sulfonamide], for which the Ki lay within 1 to 10 nM. The same measure, in the same setting: for `C#Cc1cnc(-c2cccc(S(=O)(=O)NCCO)c2)nc1Nc1cc(C2CC2)[nH]n1` [Compound 122, 3-(4-(3-Cyclopropyl-1H-pyrazol-5-ylamino)-5-ethynylpyrimidin-2-yl)-N-(2-hydroxyethyl)benzene sulfonamide] the value was 10 to 50 nM; for `C#Cc1cnc(-c2ccc(S(=O)(=O)CCCNC(C)=O)s2)nc1Nc1cc(C2CC2)[nH]n1` [Compound 229, N-(3-(5-(4-(5-cyclopropyl-1H-pyrazol-3-ylamino)-5-ethynylpyrimidin-2-yl)thiophen-2-ylsulfonyl)propyl)acetamide], 10 to 50 nM; for `C#Cc1cnc(N2CCCCC2C(=O)O)nc1Nc1cc(C2CC2)n[nH]1` (centres unmarked) [Compound 245, 1-[4-[(5-cyclopropyl-2H-pyrazol-3-yl)amino]-5-ethynyl-pyrimidin-2-yl]piperidine-2-carboxylic acid], greater than 4000 nM.

For the compound `C#Cc1cnc(N2CCCNCC2)nc1Nc1cc(C2CC2)n[nH]1` [Compound 174, N-(5-cyclopropyl-2H-pyrazol-3-yl)-2-(1,4-diazepan-1-yl)-5-ethynyl-pyrimidin-4-amine], the Ki lay in the range of 2000 to 4000 nM. As for `NS(=O)(=O)c1ccc(-c2nc(Nc3cc(C4CC4)n[nH]3)c(Cl)c(C3CC3)n2)s1` [Compound 304, 5-(5-chloro-4-cyclopropyl-6-(3-cyclopropyl-1H-pyrazol-5-ylamino)pyrimidin-2-yl)thiophene-2-sulfonamide], the Ki lay in the range of 1 to 10 nM. The same measure, in the same setting: the result for `O=S(=O)(NC1CCOC1)c1ccc(-c2ncc(Cl)c(Nc3cc(C4CC4)[nH]n3)n2)s1` (centres unmarked) [Compound 152, 5-[5-chloro-4-[(5-cyclopropyl-1H-pyrazol-3-yl)amino]-pyrimidin-2-yl]-N-tetrahydrofuran-3-yl-thiophene-2-sulfonamide] reads 10 to 50 nM.

For `Cc1cnc(-c2ccc(S(N)(=O)=O)s2)nc1Nc1cc(C2CC2)[nH]n1` [Compound 40, 5-(4-(5-cyclopropyl-1H-pyrazol-3-ylamino)-5-methylpyrimidin-2-yl)thiophene-2-sulfonamide], the Ki fell in the range of 1 to 10 nM. Consider `C#Cc1cnc(N2CCCC2)nc1Nc1cc(C2CC2)[nH]n1` [Compound 178, N-(5-cyclopropyl-1H-pyrazol-3-yl)-5-ethynyl-2-pyrrolidin-1-yl-pyrimidin-4-amine], for which the Ki was 100 to 500 nM. As to `C#Cc1cnc(N2CCCN(C)CC2)nc1Nc1cc(C2CC2)[nH]n1` [Compound 248, N-(5-cyclopropyl-1H-pyrazol-3-yl)-5-ethynyl-2-(4-methyl-1,4-diazepan-1-yl)-pyrimidin-4-amine], the inhibition constant Ki is greater than 4000 nM. Regarding `CS(=O)(=O)NCc1ccc(-c2ncc(Cl)c(Nc3cc(C4CC4)n[nH]3)n2)s1` [Compound 280, N-[[5-[5-chloro-4-[(5-cyclopropyl-2H-pyrazol-3-yl)amino]-pyrimidin-2-yl]-2-thienyl]methyl]methanesulfonamide], the Ki is 10 to 50 nM. Same read-out and setting: for `C#Cc1cnc(-c2ccc(S(=O)(=O)NCCNC(=O)C(C)(C)C)s2)nc1Nc1cc(C2CC2)n[nH]1` [Compound 183, N-(2-(5-(4-(5-cyclopropyl-1H-pyrazol-3-ylamino)-5-ethynylpyrimidin-2-yl)thiophene-2-sulfonamido)ethyl)pivalamide] the value was 50 to 100 nM. Turning to `C#Cc1cnc(-c2ccc(C(O)C(=O)OCC)s2)nc1Nc1cc(C2CC2)[nH]n1` (centres unmarked) [Compound 233, ethyl 2-[5-[4-[(5-cyclopropyl-1H-pyrazol-3-yl)amino]-5-ethynyl-pyrimidin-2-yl]-2-thienyl]-2-hydroxy-acetate], the inhibition constant Ki is 10 to 50 nM. In the case of `C#Cc1cnc(-c2ccc(C(=C)C)s2)nc1Nc1cc(C2CC2)n[nH]1` [Compound 119, N-(5-cyclopropyl-2H-pyrazol-3-yl)-5-ethynyl-2-(5-isopropenyl-2-thienyl)-pyrimidin-4-amine], the Ki lay within 10 to 50 nM. Take `CNS(=O)(=O)c1ccc(-c2nccc(Nc3cc(C4CC4)[nH]n3)n2)s1` [Compound 48]: the inhibitory constant (Ki) lay within 1 to 10 nM.

Turning to `C/C=C\c1cnc(-c2ccc(S(N)(=O)=O)s2)nc1Nc1cc(C2CC2)[nH]n1` [Compound 207, (Z)-5-(4-(5-cyclopropyl-1H-pyrazol-3-ylamino)-5-(prop-1-enyl)pyrimidin-2-yl)thiophene-2-sulfonamide], the inhibition constant Ki lay in the range of 1 to 10 nM.

Consider `C#Cc1cnc(-c2ccc(C(O)CCO)s2)nc1Nc1cc(C2CC2)[nH]n1` (centres unmarked) [Compound 242, 1-(5-(4-(5-cyclopropyl-1H-pyrazol-3-ylamino)-5-ethynylpyrimidin-2-yl)thiophen-2-yl)propane-1,3-diol], for which the inhibition constant Ki is 10 to 50 nM.

Take `N#CCc1ccc(-c2ncc(N)c(Nc3cc(C4CC4)[nH]n3)n2)cc1` [Compound 92, 2-(4-(5-amino-4-(5-cyclopropyl-1H-pyrazol-3-ylamino)pyrimidin-2-yl)phenyl)acetonitrile]: the Ki was in the range of 10 to 50 nM. With `NS(=O)(=O)c1ccc(-c2cccc(Nc3cc(C4CC4)[nH]n3)n2)s1` [Compound 272, 5-[6-[(5-cyclopropyl-1H-pyrazol-3-yl)amino]-2-pyridyl]thiophene-2-sulfonamide], the inhibitory constant (Ki) lay within 1 to 10 nM. In the case of `CC(C)(C)NS(=O)(=O)c1ccc(-c2ncc(C(F)(F)F)c(Nc3cc(C4CC4)n[nH]3)n2)s1` [Compound 162, 5-[4-[(5-cyclopropyl-2H-pyrazol-3-yl)amino]-5-(trifluoromethyl)pyrimidin-2-yl]-N-tert-butyl-thiophene-2-sulfonamide], the Ki fell in the range of 500 to 1000 nM. Consider `CC(C)(C)NS(=O)(=O)c1ccc(-c2cccc(Nc3cc(C4CC4)[nH]n3)n2)s1` [Compound 271, 5-[6-[(5-cyclopropyl-1H-pyrazol-3-yl)amino]-2-pyridyl]-N-tert-butyl-thiophene-2-sulfonamide], for which the inhibition constant Ki fell in the range of 10 to 50 nM. Consider `CC(=O)n1nc(Nc2nc(-c3ccccc3)ncc2N)cc1C1CC1` [Compound 4, 1-[3-[(5-amino-2-phenyl-pyrimidin-4-yl)amino]-5-cyclopropyl-pyrazol-1-yl]ethanone], for which the inhibitory constant (Ki) fell in the range of 100 to 500 nM. On to `CC(C)(C)OC(=O)Nc1ccc(-c2ncc(Cl)c(Nc3cc(C4CC4)[nH]n3)n2)s1` [Compound 324, tert-butyl [[5-[5-chloro-4-[(5-cyclopropyl-1H-pyrazol-3-yl)amino]-pyrimidin-2-yl]-2-thienyl]amino]formate], for which the inhibitory constant (Ki) is 100 to 500 nM. With `C#Cc1cnc(-c2ccc([C@H](O)CC)s2)nc1Nc1cc(C2CC2)[nH]n1` [Compound 213, 1-[5-[4-[(5-cyclopropyl-1H-pyrazol-3-yl)amino]-5-ethynyl-pyrimidin-2-yl]-2-thienyl]propan-1-ol], the inhibitory constant (Ki) was 1 to 10 nM. As for `O=C(O)C(=O)c1ccc(-c2ncc(Cl)c(Nc3cc(C4CC4)[nH]n3)n2)s1` [Compound 190, 2-(5-(5-chloro-4-(5-cyclopropyl-1H-pyrazol-3-ylamino)pyrimidin-2-yl)thiophen-2-yl)-2-oxoacetic acid], the inhibitory constant (Ki) lay within 10 to 50 nM. Regarding `CC(C)(C)NS(=O)(=O)c1cccc(-c2ncc(O)c(Nc3cc(C4CC4)n[nH]3)n2)c1` [Compound 102, N-tert-butyl-3-(4-(3-cyclopropyl-1H-pyrazol-5-ylamino)-5-hydroxypyrimidin-2-yl)benzenesulfonamide], the Ki lay within 50 to 100 nM.

Regarding `C#Cc1cnc(-c2ccc(C(=O)C(=O)OCC)s2)nc1Nc1cc(C2CC2)[nH]n1` [Compound 202, ethyl 2-[5-[4-[(5-cyclopropyl-1H-pyrazol-3-yl)amino]-5-ethynyl-pyrimidin-2-yl]-2-thienyl]-2-oxo-acetate], the Ki was 10 to 50 nM. As to `CC(O)c1ccc(-c2ncc(Cl)c(Nc3cc(C4CC4)[nH]n3)n2)o1` (centres unmarked) [Compound 289, 1-[5-[5-chloro-4-[(5-cyclopropyl-1H-pyrazol-3-yl)amino]-pyrimidin-2-yl]-2-furyl]ethanol], the Ki is 100 to 500 nM. With `C#Cc1cnc(-c2ccc(C#N)s2)nc1Nc1cc(C2CC2)[nH]n1` [Compound 157, 5-(4-(5-Cyclopropyl-1H-pyrazol-3-ylamino)-5-ethynylpyrimidin-2-yl)thiophene-2-carbonitrile], the Ki fell in the range of 1 to 10 nM.
